Laboratory results reported in US7759367B2, “Pharmaceutical compositions and their uses” (Eisai R&D Management Co., Ltd., priority 2001, dated 2010).
Like-named read-outs stand apart in the source and are kept apart here.

Legend:
[1] = system: male mice of ddy strain; test: Anticonvulsant action induced by AMPA (Test Example 2); assay type: in vivo; details: 25 mg/kg orally, AMPA 2 nmole/5 μl/minute/mouse into lateral ventricle 30 minutes or 1 hour after dosing
Procedure: A test compound was suspended in a 0.5% methyl cellulose solution or in sesame oil and was orally administered (25 mg/kg) to male mice of ddy strain. After 30 minutes or 1 hour from the oral administration, AMPA was continuously injected (2 nmole/5 μl/minute/mouse) into lateral ventricle to induce the convulsions. The effect was judged by a time-extending action until the convulsion takes place by a continuous injection of AMPA.

[2] = system: AMPA receptor;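 note: neurons cultured at least 8 to 10 days atop an astrocyte layer in 96-well plates, calcium entry read as the change in Fura2 fluorescence ratio at 340/380 nm excitation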
Procedure: Cerebral cortex was cut out from the brain of rat of gestational 18 days and treated with trypsin and DNase to disperse the cells. The cells were flown by MEM containing 10% of serum, sown in a culture bottle and astrocytes were proliferated. The astrocytes were re-dispersed by trypsin and sown in a 96-well plate. After incubation for one week, it was confirmed that the astrocytes covered all over the bottom and then the nerve cells of cerebral cortex which was dispersed by the above method were sown thereupon. After incubation for 24 hours, the medium was changed, the incubation was carried out for one week and, after that, the medium was changed to that containing 1 μM of MK-801. Nerve cells which were incubated for not shorter than 8 to 10 days were used.
Calcium influx into the cells was measured using Fura2-AM which was a calcium-sensitive fluorescent dye. It was treated in a medium containing Fura2-AM for 1 hour, incorporated into the cells, exchanged to a Tyrode solution containing 1 μM MK-801 and stimulation was carried out using 2 μM AMPA. Change in the amount of calcium flown into the cells were measured as the change in the fluorescent intensity at the exciting wave length of 340/380 nm.

[3] = system: Female Lewis rats; test: Experimental autoimmune encephalomyelitis model (Test Example 10); assay type: in vivo, rat; details: p.o. 5, 10 and 20 mg/kg, 10-16 dpi
Procedure: Female Lewis rats (205±10 g) obtained from Charles River, Kent UK, were housed in pairs under environmentally controlled conditions (6:00a.m.-6:00p.m. light/dark cycle; 22-24° C.; 45-55% humidity) and allowed free access to food and water. Experimental groups consisted of 9-12 animals. Rats were immunised in each hind foot with 20-50 μl of inoculum containing 50 μg guinea pig myelin basic protein (MBP; final concentration 2 mg/ml), emulsified in Freund's complete adjuvant (CFA; Sigma, UK) containing Mycobacterium tuberculosis H37Ra (final concentration 5.5 mg/ml; Difco Laboratories, UK). Animals were weighed and monitored daily and clinical disease scored as (0) no clinical signs; (1) flaccid tail and weight loss; (2) hind limb hypotonia with further weight loss; (3) complete hind limb paralysis; (4) paraplegia and (5) death. […] During the period of compound administration (10-16 days post immunisation; dpi) animals were scored 15 h after injection of vehicle or compound to avoid any acute effect of treatment on disease score. Compounds were dissolved/suspended in 0.5% methyl cellulose using a hand held Polytron homogeniser (PT1200; 2 min). Rats were dosed p.o. with either methyl cellulose vehicle (2.5 ml/kg) or compound at 5, 10 and 20 mg/kg.

[4] = primary culture of rat embryo cerebral cortex nerve cells, Fura2-AM, 2 μM AMPA, 1 μM MK-801
[5] = suppression of AMPA-induced calcium influx into nerve cells, Table 2

Row | SMILES | Anticonvulsant action (time-extending action until convulsion by continuous AMPA injection) [1] | IC50 [2, 4] [nM] | Effect on EAE vs vehicle-administered group [3] | IC50 [2, 5] [nM]
1 | O=c1c(-c2cccnc2Cl)cc(-c2ccccn2)cn1-c1ccccc1 [Example 4, 3-(2-Chloro-3-pyridyl)-5-(2-pyridyl)-1-phenyl-1,2-dihydropyridin-2-one] | significant anticonvulsant action | – | – | –
2 | N#Cc1ccccc1-c1cc(-c2ccccn2)cn(-c2cccc(N)c2)c1=O [Example 9, 3-(2-Cyanophenyl)-5-(2-pyridyl)-1-(3-aminophenyl)-1,2-dihydropyridin-2-one] | significant anticonvulsant action | 30 | – | –
3 | CN(C)c1cccc(-n2cc(-c3ccccn3)cc(-c3ccccc3C#N)c2=O)c1 [Example 12, 3-(2-Cyanophenyl)-5-(2-pyridyl)-1-(3-dimethylaminophenyl)-1,2-dihydropyridin-2-one] | significant anticonvulsant action | 100 | – | –
4 | N#Cc1ncccc1-c1cc(-c2ccccn2)cn(-c2ccccc2)c1=O [Example 16, 3-(2-Cyano-3-pyridyl)-5-(2-pyridyl)-1-phenyl-1,2-dihydropyridin-2-one] | significant anticonvulsant action | 100 | – | –
5 | N#Cc1ccccc1-c1cc(-c2ccccn2)cn(-c2cccnc2)c1=O [Example 32, 3-(2-Cyanophenyl)-5-(2-pyridyl)-1-(3-pyridyl)-1,2-dihydropyridin-2-one] | significant anticonvulsant action | 100 | superior effect to the vehicle-administered group | –
6 | N#Cc1ccccc1-c1cc(-c2ccccc2)cn(-c2ccccc2)c1=O [Example 41, 3-(2-Cyanophenyl)-1,5-diphenyl-1,2-dihydropyridin-2-one] | significant anticonvulsant action | 80 | – | –
7 | N#Cc1ccccc1-c1cc(-c2ccccc2)cn(-c2cccnc2)c1=O [Example 47, 3-(2-Cyanophenyl)-5-phenyl-1-(3-pyridyl)-1,2-dihydropyridin-2-one] | significant anticonvulsant action | – | – | –
8 | O=c1c(-c2ccccc2Cl)cc(-c2ccccn2)cn1-c1ccccc1 [Example 57, 3-(2-Chlorophenyl)-5-(2-pyridyl)-1-phenyl-1,2-dihydropyridin-2-one] | significant anticonvulsant action | – | – | –
9 | O=c1c(-c2ccccc2)cc(-c2ccccn2)cn1-c1ccccc1 [Example 61, 3-Phenyl-5-(2-pyridyl)-1-phenyl-1,2-dihydropyridin-2-one] | significant anticonvulsant action | – | – | –
10 | O=c1c(-c2cccnc2F)cc(-c2ccccn2)cn1-c1ccccc1 [Example 76, 3-(2-Fluoro-3-pyridyl)-5-(2-pyridyl)-1-phenyl-1,2-dihydropyridin-2-one] | significant anticonvulsant action | – | superior effect to the vehicle-administered group | –
11 | N#Cc1cccnc1-c1cc(-c2ccccn2)cn(-c2ccccc2)c1=O [Example 78, 3-(3-Cyano-2-pyridyl)-5-(2-pyridyl)-1-phenyl-1,2-dihydropyridin-2-one] | significant anticonvulsant action | 1400 | – | –
12 | N#Cc1ccccc1-c1cc(-c2ccccn2)cn(-c2ccc(F)cc2)c1=O [Example 91, 3-(2-Cyanophenyl)-5-(2-pyridyl)-1-(4-fluorophenyl)-1,2-dihydropyridin-2-one] | significant anticonvulsant action | 50 | – | –
13 | COc1ccccc1-n1cc(-c2ccccn2)cc(-c2ccccc2C#N)c1=O [Example 126, 3-(2-Cyanophenyl)-5-(2-pyridyl)-1-(2-methoxyphenyl)-1,2-dihydropyridin-2-one] | significant anticonvulsant action | – | – | –
14 | O=c1c(-c2ccccc2Cl)cc(-c2ccccn2)cn1-c1cccnc1 [Example 128, 3-(2-Chlorophenyl)-5-(2-pyridyl)-1-(3-pyridyl)-1,2-dihydropyridin-2-one] | significant anticonvulsant action | – | – | –
15 | N#Cc1sccc1-c1cc(-c2ccccn2)cn(-c2cccnc2)c1=O [Example 137, 3-(2-Cyanothiophen-3-yl)-5-(2-pyridyl)-1-(3-pyridyl)-1,2-dihydropyridin-2-one] | significant anticonvulsant action | – | – | –
16 | O=c1c(-c2cccnc2F)cc(-c2ccccn2)cn1-c1cccnc1 [Example 139, 3-(2-Fluoro-3-pyridyl)-5-(2-pyridyl)-1-(3-pyridyl)-1,2-dihydropyridin-2-one] | significant anticonvulsant action | – | superior effect to the vehicle-administered group | –
17 | N#Cc1ccccc1-c1cc(-c2ncccn2)cn(-c2ccccc2)c1=O [Example 164, 3-(2-Cyanophenyl)-1-phenyl-5-(2-pyrimidinyl)-1,2-dihydropyridin-2-one] | significant anticonvulsant action | – | superior effect to the vehicle-administered group | 80
18 | N#Cc1ccccc1-c1cc(-c2cnccn2)cn(-c2ccccc2)c1=O [Example 199, 3-(2-Cyanophenyl)-1-phenyl-5-(2-pyrazinyl)-1,2-dihydropyridin-2-one] | significant anticonvulsant action | – | – | –
19 | N#Cc1ccccc1-c1cc(-c2ncccn2)cn(-c2cccnc2)c1=O [Example 261, 3-(2-Cyanophenyl)-1-(3-pyridyl)-5-(2-pyrimidinyl)-1,2-dihydropyridin-2-one] | significant anticonvulsant action | – | superior effect to the vehicle-administered group | –
20 | O=c1c(-c2cccnc2F)cc(-c2ncccn2)cn1-c1ccccc1 [Example 262, 3-(2-Fluoropyridin-3-yl)-1-phenyl-5-(2-pyrimidinyl)-1,2-dihydropyridin-2-one] | significant anticonvulsant action | – | superior effect to the vehicle-administered group | 300
21 | N#Cc1ncccc1-c1cc(-c2ncccn2)cn(-c2ccccc2)c1=O [Example 264, 3-(2-Cyanopyridin-3-yl)-1-phenyl-5-(2-pyrimidyl)-1,2-dihydropyridin-2-one] | significant anticonvulsant action | – | superior effect to the vehicle-administered group | –
22 | O=c1c(-c2ccccc2[N+](=O)[O-])cc(-c2ccccn2)cn1-c1ccccc1 [Example 270, 3-(2-Nitrophenyl)-1-phenyl-5-(2-pyridyl)-1,2-dihydropyridin-2-one] | significant anticonvulsant action | – | – | –
23 | N#Cc1ccccc1-c1cc(-c2cccc(N)n2)cn(-c2ccccc2)c1=O [Example 298, 5-(2-Aminopyridin-6-yl)-3-(2-cyanophenyl)-1-phenyl-1,2-dihydropyridin-2-one] | significant anticonvulsant action | – | – | –
24 | N#Cc1ccccc1-c1cc(-c2ccccn2)cn(-c2cccc(O)c2)c1=O [Example 315, 3-(2-Cyanophenyl)-1-(3-hydroxyphenyl)-5-(2-pyridyl)-1,2-dihydropyridin-2-one] | – | 80 | – | –
25 | O=c1c(C2C3CC4CC(C3)CC2C4)cc(-c2ccccn2)cn1-c1ccccc1 (stereo not drawn) [Example 387, 3-(2-Adamantyl)-5-(2-pyridyl)-1-phenyl-1,2-dihydropyridin-2-one] | – | 7000 | – | –
26 | CC1=NN=C(c2ccc(N)cc2)c2cc3c(cc2C1)OCO3 [GYKI 52466, reference compound] | – | 9020 | – | –
